Assay results reported in patent publication US9763943B2, “Trk-inhibiting compound” (ONO PHARMACEUTICAL CO., LTD., priority 2013, dated 2017).

system: sodium monoiodoacetate (MIA)-induced model rats; test: Analgesic effect on sodium monoiodoacetate-induced model rats (right hind limb weight load ratio); type: in vivo, rat; settings: day 24, positive control drug, 10 mg/kg subcutaneous, 1 hour after administration (Table 7)

Row | Compound | Percent improvement (%)
1 | COc1cccc(C2(O)CCCCC2CN(C)C)c1 (stereo not shown) [Tramadol, reference compound] | 43

same assay, conditions: day 24, test substance oral twice a day over 10 days, 3 hours after last administration, experiment with morphine as positive control (Table 8)

Row | Compound | Percent improvement (%)
2 | Nc1ncc(F)cc1-c1ccc(Oc2ncc(NC(=O)Nc3cc(C(F)(F)F)ccc3-c3cccnc3)cn2)cc1 [Example 14-6, 1-(2-(4-(2-amino-5-fluoropyridin-3-yl)phenoxy)pyrimidin-5-yl)-3-(2-(pyridin-3-yl)-5-(trifluoromethyl)phenyl)urea] | 53
3 | Nc1ncc(C(F)(F)F)cc1-c1ccc(Oc2ncc(NC(=O)Nc3cc(C(F)(F)F)ccc3-n3ccc(C(F)(F)F)n3)cn2)cc1 [Example 15-52, 1-(2-{4-[2-amino-5-(trifluoromethyl)-3-pyridinyl]phenoxy}-5-pyrimidinyl)-3-{5-(trifluoromethyl)-2-[3-(trifluoromethyl)-1H-pyrazol-1-yl]phenyl}urea] | 60
4 | Nc1ncc(Cl)cc1-c1ccc(Oc2ncc(NC(=O)Nc3cc(C(F)(F)F)ccc3-c3ccccc3)cn2)cc1 [Example 15-55, 1-{2-[4-(2-amino-5-chloro-3-pyridinyl)phenoxy]-5-pyrimidinyl}-3-[4-(trifluoromethyl)-2-biphenylyl]urea] | 62
5 | Nc1ncc(Cl)cc1-c1ccc(Oc2ncc(NC(=O)Nc3cc(C(F)(F)F)ccc3-n3cc(Cl)cn3)cn2)cc1 [Example 15-63, 1-{2-[4-(2-amino-5-chloro-3-pyridinyl)phenoxy]-5-pyrimidinyl}-3-[2-(4-chloro-1H-pyrazol-1-yl)-5-(trifluoromethyl)phenyl]urea] | 53
6 | Nc1ncc(Cl)cc1-c1ccc(Oc2ncc(NC(=O)Nc3ccc(C(F)(F)F)cc3C(F)(F)F)cn2)cc1 [Example 15-77, 1-{2-[4-(2-amino-5-chloro-3-pyridinyl)phenoxy]-5-pyrimidinyl}-3-[2,4-bis(trifluoromethyl)phenyl]urea] | 55
7 | Nc1ncc(C(F)(F)F)cc1-c1ccc(Oc2ncc(NC(=O)Nc3cc(C(F)(F)F)ccc3-n3cc(Cl)cn3)cn2)cc1 [Example 15-87, 1-(2-{4-[2-amino-5-(trifluoromethyl)-3-pyridinyl]phenoxy}-5-pyrimidinyl)-3-[2-(4-chloro-1H-pyrazol-1-yl)-5-(trifluoromethyl)phenyl]urea] | 57
8 | CS(=O)(=O)c1ccc(C(F)(F)F)cc1NC(=O)Nc1cnc(Oc2ccc(-c3cc(C(F)(F)F)cnc3N)cc2)nc1 [Example 15-98, 1-(2-{4-[2-amino-5-(trifluoromethyl)-3-pyridinyl]phenoxy}-5-pyrimidinyl)-3-[2-(methylsulfonyl)-5-(trifluoromethyl)phenyl]urea] | 57
9 | CS(=O)(=O)c1ccc(C(F)(F)F)cc1NC(=O)Nc1cnc(Oc2ccc(-c3cc(Cl)cnc3N)cc2)nc1 [Example 15-104, 1-{2-[4-(2-amino-5-chloro-3-pyridinyl)phenoxy]-5-pyrimidinyl}-3-[2-(methylsulfonyl)-5-(trifluoromethyl)phenyl]urea] | 54
10 | CN(C)c1ccn2ncc(-c3ccc(Oc4ncc(NC(=O)Nc5cc(C(F)(F)F)ccc5-c5cccnc5)cn4)cc3)c2n1 [Example 21-37, 1-(2-{4-[5-(dimethylamino)pyrazolo[1,5-a]pyrimidin-3-yl]phenoxy}-5-pyrimidinyl)-3-[2-(3-pyridinyl)-5-(trifluoromethyl)phenyl]urea] | 67
11 | CN(C)c1ccn2ncc(-c3ccc(Oc4ncc(NC(=O)Nc5cc(C(F)(F)F)ccc5-c5ccnn5C)cn4)cc3)c2n1 [Example 21-51, 1-(2-{4-[5-(dimethylamino)pyrazolo[1,5-a]pyrimidin-3-yl]phenoxy}-5-pyrimidinyl)-3-[2-(1-methyl-1H-pyrazol-5-yl)-5-(trifluoromethyl)phenyl]urea] | 68
12 | CN(C)c1ccn2ncc(-c3ccc(Oc4ncc(NC(=O)Nc5cc(C(F)(F)F)ccc5-c5ccccc5)cn4)cc3)c2n1 [Example 21-70, 1-(2-{4-[5-(dimethylamino)pyrazolo[1,5-a]pyrimidin-3-yl]phenoxy}-5-pyrimidinyl)-3-[4-(trifluoromethyl)-2-biphenylyl]urea] | 61
13 | Cc1cccc(-c2ccc(C(F)(F)F)cc2NC(=O)Nc2cnc(Oc3ccc(-c4cnn5ccc(N(C)C)nc45)cc3)nc2)c1 [Example 21-73, 1-(2-{4-[5-(dimethylamino)pyrazolo[1,5-a]pyrimidin-3-yl]phenoxy}-5-pyrimidinyl)-3-[3′-methyl-4-(trifluoromethyl)-2-biphenylyl]urea] | 62

same assay, conditions: day 24, test substance oral twice a day over 10 days, 3 hours after last administration, experiment with tramadol as positive control (Table 7)

Row | Compound | Percent improvement (%)
14 | Nc1ncc(Cl)cc1-c1ccc(Oc2ncc(NC(=O)Nc3cc(C(F)(F)F)ccc3-n3cccn3)cn2)cc1 [Example 7, 1-(2-(1H-pyrazol-1-yl)-5-(trifluoromethyl)phenyl)-3-(2-(4-(2-amino-5-chloropyridin-3-yl)phenoxy)pyrimidin-5-yl)urea] | 61
15 | Cc1cn(-c2ccc(C(F)(F)F)cc2NC(=O)Nc2cnc(Oc3ccc(-c4cc(Cl)cnc4N)cc3)nc2)nn1 [Example 8-1, 1-(2-(4-(2-amino-5-chloropyridin-3-yl)phenoxy)pyrimidin-5-yl)-3-(2-(4-methyl-1H-1,2,3-triazol-1-yl)-5-(trifluoromethyl)phenyl)urea] | 60
16 | Nc1ncc(F)cc1-c1ccc(Oc2ncc(NC(=O)Nc3cc(C(F)(F)F)ccc3-n3ccnn3)cn2)cc1 [Example 14-5, 1-(2-(1H-1,2,3-triazol-1-yl)-5-(trifluoromethyl)phenyl)-3-(2-(4-(2-amino-5-fluoropyridin-3-yl)phenoxy)pyrimidin-5-yl)urea] | 47
17 | Nc1ncc(Cl)cc1-c1ccc(Oc2ncc(NC(=O)Nc3ccc(C(F)(F)F)cc3Cl)cn2)cc1 [Example 15-6, 1-(2-(4-(2-amino-5-chloropyridin-3-yl)phenoxy)pyrimidin-5-yl)-3-(2-chloro-4-(trifluoromethyl)phenyl)urea] | 51
18 | COc1ccn2ncc(-c3ccc(Oc4ncc(NC(=O)Nc5cc(C(F)(F)F)ccc5-c5cccnc5)cn4)cc3)c2n1 [Example 21-9, 1-(2-(4-(5-methoxypyrazolo[1,5-a]pyrimidin-3-yl)phenoxy)pyrimidin-5-yl)-3-(2-(pyridin-3-yl)-5-(trifluoromethyl)phenyl)urea] | 64
19 | O=C(Nc1cnc(Oc2ccc(-c3cnn4cccnc34)cc2)nc1)Nc1cc(C(F)(F)F)ccc1-c1cccnc1 [Example 21-13, 1-(2-(4-(pyrazolo[1,5-a]pyrimidin-3-yl)phenoxy)pyrimidin-5-yl)-3-(2-(pyridin-3-yl)-5-(trifluoromethyl)phenyl)urea] | 66
